Read-outs that look alike come from different tables or passages of the source.
Experiments:
[1] = Cytotoxicity assessment in vitro (MTT assay); format: cell-based; conditions: human
Experimental: (§1) HepG2 cells of human hepatocellular carcinoma (ATCC HB-8065; passage 20–25), purchased from Health Protection Agency Culture Collections (ECACC, Salisbury, UK), were cultured in Minimum Essential Medium Eagle supplemented with 10% v/v fetal bovine serum and 1% v/v L-glutamine solution (Sigma-Aldrich, St. Louis, MO, USA) at 37 °C in a humidified atmosphere containing 5% CO2. For passaging, the cells were treated with trypsin/EDTA (Sigma-Aldrich, St. Louis, MO, USA) at 37 °C and then harvested. For the cytotoxicity evaluation, the cells treated with the test substances were used, while untreated HepG2 cells served as a control group. The cells were seeded in a 96-well plate at a density of 1 × 10^4 cells per well and incubated for 24 h. All tested compounds were dissolved in DMSO to prepare 10 mM stock solutions and diluted to the desired concentration just before the cell treatment. Cytotoxicity of all studied derivatives was screened at 10 μM concentration, and all samples were measured in triplicates. Positive and negative controls were also included. Plates were incubated for 24 h in a humidified atmosphere containing 5% CO2 at 37 °C. After the incubation, a solution of thiazolyl blue tetrazolium bromide (Sigma-Aldrich, St. Louis, MO, USA) in RPMI 1640 medium without phenol red (BioTech, Prague, Czech Republic) was added and incubated for 3 h in a humidified atmosphere containing 5% CO2 at 37 °C. Afterwards, formazan crystals were dissolved in DMSO, and the absorbance of samples was recorded at 570 nm (Synergy Neo2 Multi-Mode Reader NEO2SMALPHAB; BioTek, Winooski, VT, USA).

HepG2 cells = assay: Cytotoxicity assessment in vitro (MTT assay); format: cell-based; conditions: human, 24 h, 10 µM
Experimental: as §1

[2] = system: P. falciparum NF54 ring-stage synchronized cultures; assay: In vitro activity against P. falciparum blood stages (flow cytometry, SYBR green I); format: cell-based, Plasmodium falciparum; conditions: Control = 7.76333, 48 h
Experimental: Activity against the blood stage of P. falciparum infection was assessed by flow cytometry analysis following the incubation of either test compounds or the drug vehicle (DMSO) with ring-stage synchronized parasite cultures, as previously described. Stock solutions of the test compounds, as well as of the positive control compound chloroquine, were prepared in DMSO and diluted to test concentrations in complete malaria culture medium (CMCM), i.e., 1640 RPMI medium supplemented with 25 mM HEPES, 2.4 mM L-glutamine, 50 µg/mL gentamicin, 0.5% w/v Albumax, 11 mM glucose, 1.47 mM hypoxanthine, and 37.3 mM NaHCO3. Samples at tested concentration were then incubated with ring-stage synchronized cultures of P. falciparum NF54 at 2.5% hematocrit and at approximately 1% parasitemia in 96-well plates at 37 °C in a 5% CO2 and 5% O2 atmosphere. Forty-eight hours post incubation, parasite load was assessed by flow cytometry, upon staining with the DNA-specific dye SYBR green I. Approximately 100,000 events were analyzed in each flow cytometry measurement.

[3] = system: hepatic stage of P. berghei; assay: In vitro activity against P. berghei hepatic stages (luciferase-expressing sporozoites in Huh-7 cells, bioluminescence); format: cell-based, Plasmodium berghei; set-up: INFECTION (IC50 determination): unit not given here; conditions: for activity at 1 µM / activity at 10 µM / IC50: Plasmodium berghei; for activity at 1 µM / activity at 10 µM: Huh-7, 48 h, read-out: INFECTION Ø screening; for activity at 1 µM / activity at 10 µM / INFECTION (IC50 determination): DMSO = 100
Experimental: Activity against the hepatic stage of P. berghei infection was assessed using the human hepatoma cell line Huh-7 (deposited at the Japanese Collection of Research Bioresources under JCRB0403). The protocol was previously comprehensively described by Prudêncio et al. and by Ploemen et al.. […] Cells were seeded in 96-well plates at a density of 1 × 10^4 cells per well in 100 µL of culture medium and incubated at 37 °C with 5% CO2 for approximately 18 h. […] The culture medium was substituted by infection medium with diluted compounds 1 hour in advance of infection. Luciferase-expressing P. berghei sporozoites (PbA-LuciGFPcon spz) were freshly obtained through the dissection of salivary glands from infected female Anopheles stephensi mosquitoes. Sporozoites were added to the cells at 1:1 ratio, i.e., 1 × 10^4 sporozoites were added per well, and then subjected to centrifugation at 1800× g for 5 min. The plate was then incubated for 46 h at 37 °C with 5% CO2, at which time Huh-7 cell confluency was indirectly assessed by the alamarBlue assay (Invitrogen, Waltham, MA, USA), as reported in the manufacturer’s protocol. Parasite load was assessed 48 h post-infection by a bioluminescence assay, as reported by the manufacturer (Biotium, Fremont, CA, USA). GraphPad Prism 8 (GraphPad Software, Inc., La Jolla, CA, USA) was used to obtain IC50 values using nonlinear regression analysis to fit the dose-response curves normalized results.

Huh-7 cell line = assay: Huh-7 cell confluency by alamarBlue assay during hepatic-stage test; format: cell-based; conditions: for CELL CONFLUENCY Ø screening / CELL CONFLUENCY (IC50 determination): human, 46 h, pH 7
Experimental: Activity against the hepatic stage of P. berghei infection was assessed using the human hepatoma cell line Huh-7 (deposited at the Japanese Collection of Research Bioresources under JCRB0403). The protocol was previously comprehensively described by Prudêncio et al. and by Ploemen et al.. Briefly, cell culture medium consisted of 1640 RPMI medium supplemented with 10% v/v fetal calf serum, 1% v/v L-glutamine, 1% v/v nonessential amino acids, 1% v/v penicillin/streptomycin, and 10 mM HEPES, pH 7. Cells were seeded in 96-well plates at a density of 1 × 10^4 cells per well in 100 µL of culture medium and incubated at 37 °C with 5% CO2 for approximately 18 h. […] The culture medium was substituted by infection medium with diluted compounds 1 hour in advance of infection. Luciferase-expressing P. berghei sporozoites (PbA-LuciGFPcon spz) were freshly obtained through the dissection of salivary glands from infected female Anopheles stephensi mosquitoes. Sporozoites were added to the cells at 1:1 ratio, i.e., 1 × 10^4 sporozoites were added per well, and then subjected to centrifugation at 1800× g for 5 min. The plate was then incubated for 46 h at 37 °C with 5% CO2, at which time Huh-7 cell confluency was indirectly assessed by the alamarBlue assay (Invitrogen, Waltham, MA, USA), as reported in the manufacturer’s protocol. Parasite load was assessed 48 h post-infection by a bioluminescence assay, as reported by the manufacturer (Biotium, Fremont, CA, USA). GraphPad Prism 8 (GraphPad Software, Inc., La Jolla, CA, USA) was used to obtain IC50 values using nonlinear regression analysis to fit the dose-response curves normalized results.

[4] = hepatic stage, Huh-7 cells, parasite load 48 h post-infection, read-out: IC50 P. berghei
[5] = Huh-7, replicate 1, unit (Table 1: µM), read-out: Antiplasmodial activity - IC50 determination, 1. measurement
[6] = Huh-7, replicate 2, unit (Table 1: µM), read-out: Antiplasmodial activity - IC50 determination, 2. measurement

Compound	viability at 24 h, 10 µM [1] [%]	1. screening of cytotoxic potential, HepG2 cell line (HepG2 cells)	2. screening of cytotoxic potential, HepG2 cell line (HepG2 cells)	3. screening of cytotoxic potential, HepG2 cell line (HepG2 cells)	Ø screening, HepG2 (sheet Graphs) (HepG2 cells)	Ø screening, blood stage parasite load ([2]; at 10 nM)	Ø screening, blood stage parasite load ([2]; at 500 nM)	Ø screening, blood stage parasite load ([2]; at 100 nm)	activity at 1 µM [3] [%]	activity at 10 µM [3] [%]	IC50 [3, 4] [µM]	CELL CONFLUENCY Ø screening (Huh-7 cell line; 1 µM)	CELL CONFLUENCY Ø screening (Huh-7 cell line; 10 µM)	IC50 [3, 5] [µM]	IC50 [3, 6] [µM]	also measured
COc1c2c(cc3c1OCO3)[C@]13C=C[C@H](OC)C[C@H]1[N@](C2)C[C@H]3OC(C)=O [28a, 11-O-Acetylambelline]	107 ± 3	104.06	105.26	110.57	106.6	7.817	11.5	10.27	79.5	64.4	> 10	94.22	93.33	–	–	–
CCC(=O)O[C@@H]1CN2Cc3c(cc4c(c3OC)OCO4)[C@@]13C=C[C@H](OC)C[C@@H]23 [28b, 11-O-Propionylambelline]	58 ± 4	62.58	57.25	55.25	58.36	8.397	7.243	7.813	77.6	64.5	> 10	98.41	102.4	–	–	–
COc1c2c(cc3c1OCO3)[C@]13C=C[C@H](OC)C[C@H]1N(C2)C[C@H]3OC(=O)C(C)C [28c, 11-O-Isobutanoylambelline]	95 ± 6	97.78	100.15	88.22	95.38	7.643	7.21	8.26	89.1	59.8	> 10	94.69	93.64	15.5	14.4	–
COc1cc(C(=O)O[C@@H]2CN3Cc4c(cc5c(c4OC)OCO5)[C@@]24C=C[C@H](OC)C[C@@H]34)cc(OC)c1OC [28n, 11-O-(3,4,5-Trimethoxybenzoyl)ambelline]	52 ± 2	52.2	49.89	54.09	52.06	–	–	–	2.38	0.82	0.047	69.5	68.02	0.047	0.047	IC50 ([3]; Huh-7, abstract, read-out: IC50 against hepatic stage of Plasmodium infection): 0.047 µM; IC50 ([3]; Huh-7, mean, unit (Table 1: µM), read-out: Antiplasmodial activity - Ø IC50): 0.047 µM; INFECTION (IC50 determination) ([3]; at 0.001 µM): 132.557; INFECTION (IC50 determination) ([3]; at 0.01 µM): 115.469; INFECTION (IC50 determination) ([3]; at 0.04 µM): 56.6784; INFECTION (IC50 determination) ([3]; at 0.07 µM): 26.9184; INFECTION (IC50 determination) ([3]; at 0.1 µM): 17.5104; INFECTION (IC50 determination) ([3]; at 0.5 µM): 2.9184; Huh-7 cell viability (Huh-7 cell line): cell viability was not affected at antiplasmodial-active concentrations; CELL CONFLUENCY (IC50 determination) (Huh-7 cell line; 0.001 µM): 120.661; CELL CONFLUENCY (IC50 determination) (Huh-7 cell line; 0.01 µM): 126.131; CELL CONFLUENCY (IC50 determination) (Huh-7 cell line; 0.04 µM): 117.957; CELL CONFLUENCY (IC50 determination) (Huh-7 cell line; 0.07 µM): 115.634; CELL CONFLUENCY (IC50 determination) (Huh-7 cell line; 0.1 µM): 118.616; CELL CONFLUENCY (IC50 determination) (Huh-7 cell line; 0.5 µM): 106.144
CCOc1cc(OCC)cc(C(=O)O[C@@H]2CN3Cc4c(cc5c(c4OC)OCO5)[C@@]24C=C[C@H](OC)C[C@@H]34)c1 [28o, 11-O-(3,5-Diethoxybenzoyl)ambelline]	56 ± 8	65.61	51.07	51.54	56.07	–	–	–	10.9	0.0467	0.316 ± 0.013	97.15	52.09	0.307	0.326	–

Reference: publication PMC10056443, “Derivatives of Amaryllidaceae Alkaloid Ambelline as Selective Inhibitors of Hepatic Stage of Plasmodium berghei Infection In Vitro” (Pharmaceutics, 2023)
